Experiment [1] has as its target T1, mouse PM20D1 (Mus musculus, UniProt Q8C165).
T1 construct: Full-length mouse Pm20d1 cDNA (GE Dharmacon) was subcloned with an in-frame C-terminal 6× His and FLAG® tag; made in house; host or cells: 293A (HEK293A) cells stably infected with retrovirus
T1 sequence (Q8C165 25-503): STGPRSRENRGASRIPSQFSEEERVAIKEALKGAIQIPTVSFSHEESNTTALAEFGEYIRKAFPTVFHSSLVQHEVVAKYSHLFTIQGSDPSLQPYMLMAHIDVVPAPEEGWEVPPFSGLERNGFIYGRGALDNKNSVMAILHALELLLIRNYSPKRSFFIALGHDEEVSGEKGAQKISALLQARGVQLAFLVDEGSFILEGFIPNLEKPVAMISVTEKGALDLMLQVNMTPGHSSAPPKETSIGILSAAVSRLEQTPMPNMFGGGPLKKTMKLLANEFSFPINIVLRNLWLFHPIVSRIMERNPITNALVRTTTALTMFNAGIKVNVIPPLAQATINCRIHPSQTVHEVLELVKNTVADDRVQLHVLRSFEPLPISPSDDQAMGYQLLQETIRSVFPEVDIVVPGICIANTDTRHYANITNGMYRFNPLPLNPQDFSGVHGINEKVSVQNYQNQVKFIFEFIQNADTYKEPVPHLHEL
Nature of the experiment: In vitro PM20D1-catalyzed N-acyl amino acid hydrolysis. The experiment is classed as biochemical. Particulars: N-acyl amide substrate 100 μM.

Experiment [2] deals with Diet induced obese (DIO) mice. Nature of the experiment: Chronic daily i.p. administration of N-acyl amino acids to DIO mice (body weight, food intake, body composition, GTT). Particulars: chronic treatment, C18:1-Phe 30 or 50 mg/kg/day, C20:4-Gly 15 mg/kg/day, i.p. The experiment is classed as in vivo, mouse. As for the experimental part: Animal experiments were performed according to procedures approved by the Beth Israel Deaconess Medical Center IACUC. Mice were maintained in 12 h light-dark cycles at 22° C. and fed a standard irradiated rodent chow diet. All experiments on wild-type mice were performed with male C57BL/6 mice purchased from Jackson Laboratories, except for the AAV experiments, which were performed with male C57BL/6 mice from Charles River. UCP1-KO (stock #017476) and 16-20 week DIO mice (stock #380050) were obtained from Jackson Laboratories. For AAV injection experiments, mice were gently warmed using a 250 W clear infrared heat lamp, immobilized, and injected via tail vein with 10^10 virus/mouse (diluted in saline) in a total volume of 100 μl/mouse. Where indicated, mice were placed on high-fat diet (60% fat, Research Diets). For cold exposure experiments, mice were group housed and placed at 4° C. for the indicated times. For the preparation of C18:1-Phe for in vivo injections, compounds were dissolved in 18:1:1 v/v/v saline:Kolliphor® EL (Sigma Aldrich):DMSO and sonicated until homogeneous. Mice were administered compounds at 5 μl/g body weight at the indicated doses. For all injection experiments, mice were mock injected with saline daily for 3 days prior to the start of the experiments. For glucose tolerance tests (GTTs), mice received their final dose of compound the day prior to the assay and were then fasted overnight. Glucose was administered at 1.5 g/kg.
Energy expenditure, O2 consumption, CO2 production, respiratory exchange ratio, total locomotor activity, and food intake measurements were made with a 16-cage Columbus Instruments Oxymax Comprehensive Lab Animal Monitoring System (CLAMS) at ambient room temperature (21-23° C.). Mice were acclimated for one day in metabolic cages prior to data collection. Whole-body composition was assessed with an EchoMRI™ 3-in-1 on conscious mice.

“Also recorded” adds a separate entry of the source.

As for `CCCCCCCC/C=C\CCCCCCCC(=O)N[C@@H](Cc1ccccc1)C(=O)O` [C18:1-Phe, Oleoyl-L-phenylalanine], the “substrate of the PM20D1 hydrolysis reaction” value in experiment [1] was “substrates; also recorded: liberated free oleate”. In experiment [2], the food intake entry is listed as “reduced food intake”.

The values above are taken from patent US12194080B2, “Methods for identification, assessment, prevention, and treatment of metabolic disorders using PM20D1 and N-lipidated amino acids” (Dana-Farber Cancer Institute, Inc., priority 2015, dated 2025).
